A word on the Emax: it is the size of the effect at its maximum, as opposed to the concentration needed.

Each structure is given as a SMILES string.

What all share (format): functional
For test [1], the species on record is Cavia porcellus. Nature of the test: Percent relaxation using isolated guinea pig trachea.
For test [2], the species on record is Cavia porcellus. Nature of the test: Percent relaxation of isolated guinea pig trachea.
The species named for test [3] is Cavia porcellus. Nature of the test: pD2 value (pD2 = -log EC50) was calculated using indometazine in guinea pig trachea.
The species named for test [4] is Cavia porcellus. Nature of the test: Compound was evaluated for the percent of relaxation using isolated guinea pig trachea at a dose of 1 mM.
The species entered for test [5] is Cavia porcellus. Put plainly: Compound was evaluated for the percent of relaxation using isolated guinea pig trachea.

`O=C(CN1CCNCC1)N1CCCC1`: the Relaxation in the test filed under Cavia porcellus [1] came out at 59%. Further, in the test listed under Cavia porcellus [2], the pD2 came out at 4.6.
In the case of `CCCCC(CC)CN1CN(CC(CC)CCCC)CC(C)(N)C1` (stereo not drawn) [HEXETIDINE], the Relaxation in the test filed under Cavia porcellus [1] is -94%.
Still for that read-out and setting: in the case of `OC(Cn1cncn1)(Cn1cncn1)c1ccc(F)cc1F` [FLUCONAZOLE] it was -51%.
With `Cc1nc2c(o1)CC1C=CC=CC1=CC2O` (stereo not drawn), the Relaxation in the test listed under Cavia porcellus [1] is listed as 37%. In the test filed under Cavia porcellus [2], this compound returned a pD2 of 4.8.
In the same order, the values of `O=S1(=O)OC(c2cc(Br)c(O)c(Br)c2)(c2cc(Br)c(O)c(Br)c2)c2ccccc21` [BROMOPHENOL BLUE] are 51% and 4.5.
In the same order, the values of `O=C(O)c1ccc2c(c1)S(=O)(=O)c1ccccc1C2=O` are 85% and 4.65.
On to `Nc1nccs1` [AMINOTHIAZOLE], for which the Relaxation in the test filed under Cavia porcellus [1] is given as 19%. In addition, the pD2 in the test listed under Cavia porcellus [2] amounted to 4.4.
Regarding `COC1=CC(=O)C[C@@H](C)[C@]12Oc1c(Cl)c(OC)cc(OC)c1C2=O` [GRISEOFULVIN], the Relaxation in the test filed under Cavia porcellus [1] was found to be 74%. In the test listed under Cavia porcellus [2], this compound returned a pD2 of 4.8.
As to `CCN(CC)c1ccc2nc3c4ccccc4c(=O)cc-3oc2c1` [NILE RED], in the test filed under Cavia porcellus [1], the Relaxation was determined as 0%.
As for `CCCCC1C(=O)N(c2ccccc2)N(c2ccccc2)C1=O` [PHENYLBUTAZONE], the Relaxation in the test listed under Cavia porcellus [1] is 28%. In the test listed under Cavia porcellus [3], the pD2 is on record as 4.69.
Take `Cc1c(C(C)C)c(=O)n(-c2ccccc2)n1C` [PROPYPHENAZONE]: the Relaxation in the test listed under Cavia porcellus [1] came to 29%. For the same compound, the pD2 in the test listed under Cavia porcellus [2] was determined as 5.69.
In the same order, the values of `CC(=O)CC(c1ccc([N+](=O)[O-])cc1)c1c(O)c2ccccc2oc1=O` (stereo not drawn) [ACENOCOUMAROL] are 69% and 4.55.
For the compound `CCn1cc(C(=O)O)c(=O)c2cc(F)c(N3CCNCC3)cc21` [NORFLOXACIN], the Relaxation in the test listed under Cavia porcellus [1] was 0%.
For `C[n+]1cc2c3c(ccc2c2ccc4cc5c(cc4c21)OCO5)OCO3` [SANGUINARIUM], the Relaxation in the test filed under Cavia porcellus [1] was -89%.
Take `Cc1c(C2(c3cc(Br)c(O)c(Br)c3C)OS(=O)(=O)c3ccccc32)cc(Br)c(O)c1Br` [BROMCRESOL GREEN]: the Relaxation in the test filed under Cavia porcellus [1] is 21%. The pD2 in the test listed under Cavia porcellus [2] turned out to be 4.5.
The corresponding values for `NC(=O)c1ccc2c(c1)S(=O)(=O)c1ccccc1C2=O` are 18% and 5.69.
On to `CCn1cc(C(=O)O)c(=O)c2cnc(N3CCCC3)nc21` [PIROMIDIC ACID], for which the Relaxation in the test listed under Cavia porcellus [1] was 25%. The pD2 in the test listed under Cavia porcellus [2] is recorded as 5.3.
With `O=C(O)c1cn(C2CC2)c2cc(N3CCNCC3)c(F)cc2c1=O` [CIPROFLOXACIN], the Relaxation in the test listed under Cavia porcellus [1] came out at 0%.
Consider `Cn1c(=O)c2nc[nH]c2n(C)c1=O.O` [THEOPHYLLINE], for which the maximal response (Emax) at 1000 µM in the test listed under Cavia porcellus [4] was 100%. In the test listed under Cavia porcellus [2], this compound gave a pD2 of 4.69. Moreover, the Relaxation in the test filed under Cavia porcellus [5] came out at 77.1%.
Consider `COC(=O)C1C2CCC(O2)C1C(=O)OC` (stereo not drawn), for which the Relaxation in the test listed under Cavia porcellus [1] stood at 28%. The same compound returned a pD2 in the test filed under Cavia porcellus [2] of 4.8.
Turning to `Cc1ccc(S(=O)(=O)N2CCCSCC2)cc1`, in the test filed under Cavia porcellus [1], the Relaxation was determined as 0%.
In the case of `N#Cc1ccc2c(c1)S(=O)(=O)c1ccccc1C2=O`, the Relaxation in the test filed under Cavia porcellus [1] worked out at 13%. The compound also showed a pD2 in the test filed under Cavia porcellus [2] of 4.53.
In the same order, the values of `O=C1c2ccccc2S(=O)(=O)c2cc(-c3nn[nH]n3)ccc21` [DOXANTRAZOLE] are 91% and 5.5.
For `CN1C(C(=O)Nc2ccccn2)=C(O)c2sccc2S1(=O)=O` [TENOXICAM], the Relaxation in the test filed under Cavia porcellus [1] was 32%. Also, the pD2 in the test listed under Cavia porcellus [3] is given as 5.2.
On to `Cc1occc(=O)c1O` [MALTOL], for which the Relaxation in the test filed under Cavia porcellus [1] is given as 16%. In the test listed under Cavia porcellus [2], this compound showed a pD2 of 5.25.
`C[C@]12CCC(=O)C=C1CCCC2=O`: the Relaxation in the test filed under Cavia porcellus [1] is on record as 22%. The compound also registered a pD2 in the test filed under Cavia porcellus [2] of 4.5.
The corresponding values for `Oc1ccc2c(O)c3ccccc3cc2c1O` [ANTHRAROBIN] are 92% and 5.69.

The values are drawn from ChEMBL document CHEMBL1131357, “New bronchodilators selected by molecular topology” (1998).
